The values that follow come from US20090143279A1 (priority 2007, published 2009).

For one experiment, the system named is nuOXPHOS transcripts. It is filed as cell-based, mouse.
The test system of a further experiment is mtOXPHOS transcripts. Format: cell-based, mouse.
Experiment [1] relates to cellular dehydrogenase activity.
Another experiment deals with OXPHOS gene expression. Format: cell-based, mouse.
Experiment [2] has as its system mitochondrial membrane potential. Format: cell-based, mouse.
A further experiment concerns reactive oxygen species. Format: cell-based, mouse.
For the next experiment, the system named is cytochrome c. Format: cell-based, mouse.
Where [3] appears, read: 20 μM, composite Z-score vs DMSO.
[4] abbreviates: normalized composite Z-score vs mock-treated (DMSO) wells, Conc 20 μM.
Where [5] appears, read: composite Z-score vs DMSO wells, Conc 20 μM.
Where [6] appears, read: Conc 20 μM, normalized score vs mock-treated (DMSO) wells.
Setting [7] is: composite Z-score vs DMSO, Conc 20 μM.
Setting [8] is: 18.5 μM, composite Z-score vs DMSO.

Molecules are shown by their SMILES. Read-outs that look alike come from different tables or passages of the source.

Regarding `OC(c1cc(C(F)(F)F)nc2c(C(F)(F)F)cccc12)C1CCCCN1` (centres unmarked) [mefloquine], the values for the nucOX in the experiment with nuOXPHOS transcripts and in the experiment on nuOXPHOS transcripts (setting [3]) were −0.073 and 0.552, respectively. Moreover, the mitoOX is reported as 0.007 with mtOXPHOS transcripts and −0.093 in the experiment on mtOXPHOS transcripts (setting [3]). Also, the results for the MTT in experiment [1] and in experiment [1] (setting [3]) were −1.368 and 0.374, respectively. The values for the GE-HTS with OXPHOS gene expression and with OXPHOS gene expression (setting [3]) were −0.036 and 0.362, respectively. Further, the ΔΨm is listed as −0.537 in experiment [2] and −0.505 in experiment [2] (setting [3]). The ROS in the experiment on reactive oxygen species is listed as −0.069; with reactive oxygen species (setting [3]), −0.983. For the same compound, the Viability with C2C12 myotubes is listed as −0.183; in the experiment with C2C12 myotubes (setting [3]) it was 1.135. Moreover, the cyt c in the experiment on cytochrome c is recorded as 0.498; in the experiment with cytochrome c (setting [3]), −1.496.
In turn, `OC[C@H]1O[C@@](CO)(O[C@H]2O[C@H](CO)[C@@H](O)[C@H](O)[C@H]2O)[C@@H](O[C@H]2O[C@H](CO)[C@@H](O)[C@H](O)[C@H]2O)[C@@H]1O` [melezitose] showed a nucOX with nuOXPHOS transcripts (setting [4]) of 0.054. For the same compound, in the experiment on mtOXPHOS transcripts (setting [4]), the mitoOX is on record as −1.553. The MTT in experiment [1] (setting [4]) is −0.968. Moreover, in the experiment with OXPHOS gene expression (setting [4]), the GE-HTS was −0.502. In experiment [2] (setting [4]), the ΔΨm is listed as −0.605. Further, the ROS in the experiment on reactive oxygen species (setting [4]) is −0.125. For the same compound, the Viability in the experiment on C2C12 myotubes (setting [4]) is −0.843. This compound came in with a cyt c with cytochrome c (setting [4]) of 0.284.
As for `N[C@@H](Cc1ccc(N(CCCl)CCCl)cc1)C(=O)O` [melphalan], the nucOX in the experiment with nuOXPHOS transcripts (setting [5]) was found to be 1.282. Besides, the mitoOX in the experiment on mtOXPHOS transcripts (setting [5]) is 1.453. Moreover, the MTT in experiment [1] (setting [5]) is −1.387. For the same compound, the GE-HTS in the experiment with OXPHOS gene expression (setting [5]) amounted to 1.449. In experiment [2] (setting [5]), this compound gave a ΔΨm of 0.151. Besides, in the experiment on reactive oxygen species (setting [5]), the ROS is −0.265. Besides, the Viability in the experiment on C2C12 myotubes (setting [5]) is listed as −0.360. In addition, in the experiment on cytochrome c (setting [5]), the cyt c is −0.954.
Consider `CC1CCC(C(C)C)C(OC(=O)c2ccccc2)C1` (centres unmarked) [menthyl benzoate], for which, in the experiment on nuOXPHOS transcripts (setting [6]), the “nucOX (composite Z-score)” value was determined as 0.047. Further, the “mitoOX (composite Z-score)” value in the experiment on mtOXPHOS transcripts (setting [6]) is listed as −0.336. Moreover, in experiment [1] (setting [6]), the “MTT (composite Z-score)” value is on record as −1.026. In addition, the “GE-HTS (composite Z-score)” value with OXPHOS gene expression (setting [6]) is −0.115. Besides, the “ΔΨm (composite Z-score)” value in experiment [2] (setting [6]) came to 0.016. Also, in the experiment with reactive oxygen species (setting [6]), the “ROS (composite Z-score)” value was found to be 1.375. Besides, the “Viability (composite Z-score)” value with C2C12 myotubes (setting [6]) is reported as −0.151. In the experiment with cytochrome c (setting [6]), the “cyt c (composite Z-score)” value is listed as −0.724.
In the case of `C[N+]1(C)CCCC(OC(=O)C(O)(c2ccccc2)c2ccccc2)C1` (centres unmarked) [mepenzolate], the nucOX in the experiment on nuOXPHOS transcripts (setting [5]) stood at 0.062. Also, the mitoOX in the experiment on mtOXPHOS transcripts (setting [5]) is recorded as −0.129. Moreover, the MTT in experiment [1] (setting [5]) is −0.894. Moreover, the GE-HTS with OXPHOS gene expression (setting [5]) was −0.025. The compound further registered a ΔΨm in experiment [2] (setting [5]) of 1.198. The ROS in the experiment with reactive oxygen species (setting [5]) was determined as 0.368. This compound displayed a Viability in the experiment with C2C12 myotubes (setting [5]) of 0.333. The cyt c in the experiment with cytochrome c is on record as 0.666; in the experiment with cytochrome c (setting [5]) it was 0.855.
Regarding `NCCS` [mercaptamine], the nucOX in the experiment on nuOXPHOS transcripts is −0.980. Further, in the experiment on mtOXPHOS transcripts, the mitoOX was −1.294. Also, the MTT in experiment [1] is recorded as −0.085. In the experiment with OXPHOS gene expression, the GE-HTS is given as −1.175. In addition, the ΔΨm in experiment [2] is −0.724. Besides, the ROS in the experiment with reactive oxygen species was −0.661. The Viability with C2C12 myotubes was −0.271. In the experiment with cytochrome c, this compound displayed a cyt c of 0.320.
In the case of `CC1=C2C(O)C(=O)OC3CC4C(C)(C)C(=O)C=C[C@]4(C)C(CC1)[C@]23C` (some centres unmarked) [merogedunin], the nucOX in the experiment with nuOXPHOS transcripts (setting [4]) was −0.160. Also, the mitoOX with mtOXPHOS transcripts (setting [4]) is given as −0.350. In experiment [1] (setting [4]), the MTT is given as −0.645. In the experiment on OXPHOS gene expression (setting [4]), the GE-HTS is reported as −0.254. The ΔΨm in experiment [2] (setting [4]) is on record as −0.214. The compound further registered an ROS with reactive oxygen species (setting [4]) of 0.741. Also, the Viability in the experiment with C2C12 myotubes (setting [4]) is recorded as −0.222. The compound also yielded a cyt c in the experiment with cytochrome c (setting [4]) of 0.490.
In the experiment on nuOXPHOS transcripts (setting [5]), `CC(C)NCC(O)c1cc(O)cc(O)c1` (centres unmarked) [metaproterenol] had a nucOX of 0.138. In addition, in the experiment on mtOXPHOS transcripts (setting [5]), the mitoOX is listed as −0.094. Also, the MTT in experiment [1] (setting [5]) is reported as −0.832. Also, in the experiment on OXPHOS gene expression (setting [5]), the GE-HTS is listed as 0.086. Further, the ΔΨm in experiment [2] (setting [5]) was −1.005. The compound also returned an ROS in the experiment with reactive oxygen species (setting [5]) of 2.154. For the same compound, the Viability in the experiment with C2C12 myotubes (setting [5]) is listed as 0.206. Besides, the cyt c in the experiment on cytochrome c is 0.339; in the experiment with cytochrome c (setting [5]) it was 0.212.
For the compound `C[C@H](N)[C@H](O)c1cccc(O)c1` [metaraminol], the nucOX in the experiment with nuOXPHOS transcripts (setting [7]) is on record as −0.456. In the experiment with mtOXPHOS transcripts (setting [7]), the mitoOX was −0.745. For the same compound, the MTT in experiment [1] (setting [7]) is recorded as −1.268. Further, the GE-HTS in the experiment with OXPHOS gene expression (setting [7]) is on record as −0.589. Further, in experiment [2] (setting [7]), the ΔΨm is given as −0.772. This compound also displayed an ROS in the experiment with reactive oxygen species (setting [7]) of 0.313. The Viability in the experiment with C2C12 myotubes (setting [7]) was 0.107. The same compound gave a cyt c in the experiment with cytochrome c (setting [7]) of 0.327.
As for `C=C1c2cccc(O)c2C(=O)C2=C(O)[C@]3(O)C(=O)C(C(N)=O)=C(O)[C@@H](N(C)C)[C@@H]3[C@@H](O)[C@H]12` [methacycline, reference compound], the nucOX in the experiment with nuOXPHOS transcripts (setting [5]) is given as −0.600. For the same compound, in the experiment on mtOXPHOS transcripts (setting [5]), the mitoOX turned out to be 0.258. The MTT in experiment [1] (setting [5]) is −1.744. The GE-HTS in the experiment on OXPHOS gene expression (setting [5]) is −0.340. In experiment [2] (setting [5]), the ΔΨm is −1.616. In the experiment on reactive oxygen species (setting [5]), this compound had an ROS of 1.083. In addition, the Viability in the experiment with C2C12 myotubes (setting [5]) is −1.645. Also, the cyt c in the experiment with cytochrome c is 0.020; with cytochrome c (setting [5]) it was 0.723.
As for `CNC(=O)ON=C(C)SC` [methomyl], the nucOX in the experiment with nuOXPHOS transcripts (setting [7]) is recorded as −0.805. Further, the mitoOX in the experiment with mtOXPHOS transcripts (setting [7]) was −0.317. Besides, the MTT in experiment [1] (setting [7]) is −1.481. In the experiment with OXPHOS gene expression (setting [7]), the GE-HTS is −0.703. In experiment [2] (setting [7]), the ΔΨm was −0.493. In addition, in the experiment with reactive oxygen species (setting [7]), the ROS is listed as 0.231. The Viability in the experiment with C2C12 myotubes (setting [7]) is 1.361. For the same compound, the cyt c with cytochrome c (setting [7]) was −0.007.
For the compound `COc1c2occc2cc2ccc(=O)oc12` [methoxsalen], in the experiment with nuOXPHOS transcripts (setting [3]), the nucOX was −0.513. For the same compound, in the experiment with mtOXPHOS transcripts (setting [3]), the mitoOX is −0.489. Also, in experiment [1] (setting [3]), the MTT is listed as −0.976. The GE-HTS in the experiment with OXPHOS gene expression (setting [3]) was −0.562. In experiment [2] (setting [3]), the ΔΨm is recorded as −0.034. Further, the ROS in the experiment on reactive oxygen species (setting [3]) was found to be 0.310. Besides, in the experiment on C2C12 myotubes (setting [3]), the Viability was 0.416. Moreover, the cyt c with cytochrome c (setting [3]) is listed as −0.889.
The compound `COc1c2occc2cc2ccc(=O)oc12` [methoxy-8-psoralen] registered a nucOX in the experiment on nuOXPHOS transcripts (setting [8]) of 0.952. Also, the mitoOX in the experiment with mtOXPHOS transcripts (setting [8]) was determined as 0.340. In addition, in experiment [1] (setting [8]), the MTT is reported as −0.371. Also, in the experiment on OXPHOS gene expression (setting [8]), the GE-HTS is listed as 0.803. For the same compound, the ΔΨm in experiment [2] (setting [8]) amounted to 0.605. Also, the ROS in the experiment on reactive oxygen species (setting [8]) was 0.103. Moreover, the Viability in the experiment on C2C12 myotubes (setting [8]) is recorded as 1.463. For the same compound, in the experiment with cytochrome c (setting [8]), the cyt c is listed as 0.227.
As to `COC(=O)c1c(C)cc(O)cc1O` [methyl orsellinate], the nucOX in the experiment with nuOXPHOS transcripts (setting [7]) was −1.000. The mitoOX in the experiment on mtOXPHOS transcripts (setting [7]) was −1.146. For the same compound, the MTT in experiment [1] (setting [7]) came out at 0.148. Moreover, the GE-HTS with OXPHOS gene expression (setting [7]) is −1.129. The ΔΨm in experiment [2] (setting [7]) was −0.632. Besides, the ROS in the experiment on reactive oxygen species (setting [7]) is given as 1.212. In addition, in the experiment with C2C12 myotubes (setting [7]), the Viability is −0.008. Besides, in the experiment on cytochrome c (setting [7]), the cyt c came out at 0.573.
As for `COP(=S)(OC)Oc1ccc([N+](=O)[O-])cc1` [methyl parathione], the nucOX with nuOXPHOS transcripts amounted to 0.500. The mitoOX with mtOXPHOS transcripts amounted to 0.450. For the same compound, the MTT in experiment [1] was −0.341. This compound gave a GE-HTS in the experiment with OXPHOS gene expression of 0.500. In addition, in experiment [2], the ΔΨm is −0.353. Besides, in the experiment with reactive oxygen species, the ROS was found to be 0.218. Also, in the experiment on C2C12 myotubes, the Viability was 1.967. In addition, the cyt c in the experiment with cytochrome c amounted to 0.414.
